Data published in patent publication US20210330821A1, “METHODS OF MAKING PROSTATE CANCER TREATMENT DECISIONS” (priority 2018, published 2021).

Assay: OSPREY safety: drug-related adverse events after 18F-DCFPyL
Format: in vivo, human
Experimental: The coprimary endpoints of sensitivity and specificity of ^18F-DCFPyL PET/CT for detecting pelvic lymph node metastases were evaluated in Cohort A. Secondary endpoints included safety in both cohorts, positive predictive value (PPV) and negative predictive value (NPV) in Cohort A, and sensitivity and PPV in Cohort B. Three central, blinded, and independent readers evaluated the ^18F-DCFPyL scans. Histopathology served as the reference standard to which imaging findings were compared. FIG. 1 provides information regarding the study design and cohorts.
Co-primary endpoints of specificity and sensitivity of ^18F-DCFPyL PET/CT for detecting prostate cancer metastases in pelvic lymph nodes were evaluated in Cohort A. Key secondary endpoints included incidence of adverse events, positive predictive value (PPV) and negative predictive value (NPV) of ^18F-DCFPyL PET/CT imaging to detect pelvic lymph node metastases in Cohort A, sensitivity and PPV of ^18F-DCFPyL PET/CT imaging to detect prostate cancer within sites of metastasis or recurrence in Cohort B. Three central, blinded, and independent readers evaluated the ^18F-DCFPyL scans. Imaging findings were compared to histopathology as the truth standard.
Pts underwent image-guided biopsy.

O=C(O)CC[C@H](NC(=O)N[C@@H](CCCCNC(=O)c1ccc([18F])nc1)C(=O)O)C(=O)O [18F-DCFPyL]
Cohort B pts who experienced ≥1 drug-related AE (Cohort B, 117 men, dysgeusia and generalized rash): 1.7%
Severity of drug-related AEs (Cohort B, dysgeusia and generalized rash): mild (Grade 1)
Dysgeusia (drug-related adverse event) (both cohorts): 2.1%
Headache (drug-related adverse event) (both cohorts): 2.1%
Drug-related serious adverse events (both cohorts, 385 men): No drug-related serious adverse events were observed
Men who experienced ≥1 drug-related adverse event (both cohorts, 385 men): 7.0%
Tolerability (patients with PCa, OSPREY): generally well tolerated
